2 compounds from patent publication US9745261B2, “Inhibitors of the MITF molecular pathway” (THE GENERAL HOSPITAL CORPORATION, priority 2013, dated 2017) can be followed below.

One assay has as its system MITF. As to the kind of experiment: qPCR assay for MITF expression in SK-MEL-5 cells. Format: cell-based. The following applies: Homo sapiens; SK-MEL-5 melanoma cells, up to 35 μM. On the procedure: SK-MEL-5 cells were treated with compounds for 24 hours. Next, cells were lysed with DNase I (Ambion, from Cell to CT Lysis Mix). Lysed cells were delivered to a RT-PCR plate (Ambion, Cells to CT RT Mix) and the plates were then processed for reverse transcription to create cDNA. qPCR was performed by transferring cDNA from the RT-PCR plate to a qPCR plate containing PCR master mix (Roche, Probes Master), FAM Taqman probe/primer set for the target gene (human MITF, Applied Biosystem, 4331182 Hs01117294_m1), VIC Taqman probe/primer set for a house keeping gene (human GAPDH, Applied Biosystems C10228) and water. qPCR plates were cycled using a real-time PCR instrument (Roche, Light Cycler). Using the instrument software, a cycle call was generated when each well enters log phase amplification (Ct). The delta Ct value was determined by subtracting the Ct value of the control gene (GAPDH) from the Ct value of the target gene (MITF) in each well. The delta delta Ct value of each compound treatment was determined by averaging the delta Ct values of the mock well on each plate and subtracting that average from the delta Ct value of each compound well. […]
• 10. […] The RT assay plates are incubated at 37° C. for 1 hour and the reverse transcriptase is inactivated by incubating the plates for 1 minute at 95° C. • 13. cDNA is stored at −80° C. until ready for qPCR analysis […]

For assay [1], the system named is primary human melanocytes. Description: Cell proliferation/viability assay of primary human melanocytes. Format: cell-based. Particulars: Melanocyte, 24 hours, CellTiter-Glo. As for the experimental part: Primary human neonatal melanocytes were isolated from discarded foreskins by gentle dispase treatment and grown in Ham's F10 media supplemented with 7% FBS, penicillin/streptomycin/glutamine, 0.1 mM methyl-3-(2-methylpropyl)-7H-1-purine-2,6-dione (IBMX), 50 ng/mL 12-tetradecanoylphorbol 13-acetate (TPA), 1 μM Na3VO4 and 1 μM N(6),2′-O-dibutyryladenosine 3′:5′ cyclic monophosphate (dbcAMP). Cells were plated at 4,000 cells per well of a 384 well plate. On the following day, 10 nL of compound was added per well and incubated for 24 hours. The compounds were tested at different concentrations to determine IC50 values. At the end of compound treatment, cell viability was measured with CellTiter-Glo (Promega) and luminescence measured with the PerkinElmer EnVision plate reader. Data were normalized against DMSO in Genedata Screener's Assay Analyzer.
Primary human neonatal melanocytes were isolated from discarded foreskins by gentle dispase treatment and grown in TIVA media (Ham's F10 media supplemented with 7% FBS, penicillin/streptomycin/glutamine, 0.1 mM IBMX, 50 ng/mL TPA, […]). […]
Day 3 • 5. […] Read on the Perkin-Elmer EnVision plate reader with luminescence (LUM) settings for 0.1 sec per well. qPCR Assay for Target Gene Expression (MITF: 2084-05, TRPM1: 2084-09, CDK2: 2084-11, DCT: 2084-12, MLANA: 2084-13)
Background: In ATP-based viability assays light output follows the ATP content of the culture.

The next assay concerns the target T1, Adrenergic α1A (Rattus norvegicus, UniProt P43140).
T1 construct: Eurofins Panlabs, Inc. (contract assay) 203100 (assay number)
Description: Radioligand binding, Adrenergic α1A.

Assay [2] has as its target T2, Androgen (Testosterone) AR (Rattus norvegicus, UniProt P15207).
T2 construct: Eurofins Panlabs, Inc. (contract assay)
Description: Radioligand binding, Androgen (Testosterone) AR.

For another assay, the target named is T3, Dopamine D3 (Homo sapiens, UniProt P35462).
T3 construct: Eurofins Panlabs, Inc. (contract assay)
T3 sequence (P35462 whole entry): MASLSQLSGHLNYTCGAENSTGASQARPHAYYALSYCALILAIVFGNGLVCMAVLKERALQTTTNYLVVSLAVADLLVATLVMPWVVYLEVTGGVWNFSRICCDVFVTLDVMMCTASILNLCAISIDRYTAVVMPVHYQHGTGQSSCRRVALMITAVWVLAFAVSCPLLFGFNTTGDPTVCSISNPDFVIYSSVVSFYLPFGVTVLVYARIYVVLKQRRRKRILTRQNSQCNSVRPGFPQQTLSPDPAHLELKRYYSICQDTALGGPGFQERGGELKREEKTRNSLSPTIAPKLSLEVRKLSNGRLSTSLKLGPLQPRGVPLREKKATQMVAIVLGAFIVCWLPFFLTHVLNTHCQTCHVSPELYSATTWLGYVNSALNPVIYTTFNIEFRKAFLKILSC
As to the kind of experiment: Radioligand binding, Dopamine D3.

Assay [3] concerns the target T4, Leukotriene, Cysteinyl CysLT1 (Homo sapiens, UniProt Q9Y271).
T4 construct: Eurofins Panlabs, Inc
As to the kind of experiment: Radioligand binding, Leukotriene, Cysteinyl CysLT1.

Another assay has as its target T5, Neuropeptide Y Y2 (Homo sapiens, UniProt P49146).
T5 construct: Eurofins Panlabs, Inc
Description: Radioligand binding, Neuropeptide Y Y2.

pEC50, pIC50: −log10 of the molar value.

T2 sequence (P15207 whole entry S389L): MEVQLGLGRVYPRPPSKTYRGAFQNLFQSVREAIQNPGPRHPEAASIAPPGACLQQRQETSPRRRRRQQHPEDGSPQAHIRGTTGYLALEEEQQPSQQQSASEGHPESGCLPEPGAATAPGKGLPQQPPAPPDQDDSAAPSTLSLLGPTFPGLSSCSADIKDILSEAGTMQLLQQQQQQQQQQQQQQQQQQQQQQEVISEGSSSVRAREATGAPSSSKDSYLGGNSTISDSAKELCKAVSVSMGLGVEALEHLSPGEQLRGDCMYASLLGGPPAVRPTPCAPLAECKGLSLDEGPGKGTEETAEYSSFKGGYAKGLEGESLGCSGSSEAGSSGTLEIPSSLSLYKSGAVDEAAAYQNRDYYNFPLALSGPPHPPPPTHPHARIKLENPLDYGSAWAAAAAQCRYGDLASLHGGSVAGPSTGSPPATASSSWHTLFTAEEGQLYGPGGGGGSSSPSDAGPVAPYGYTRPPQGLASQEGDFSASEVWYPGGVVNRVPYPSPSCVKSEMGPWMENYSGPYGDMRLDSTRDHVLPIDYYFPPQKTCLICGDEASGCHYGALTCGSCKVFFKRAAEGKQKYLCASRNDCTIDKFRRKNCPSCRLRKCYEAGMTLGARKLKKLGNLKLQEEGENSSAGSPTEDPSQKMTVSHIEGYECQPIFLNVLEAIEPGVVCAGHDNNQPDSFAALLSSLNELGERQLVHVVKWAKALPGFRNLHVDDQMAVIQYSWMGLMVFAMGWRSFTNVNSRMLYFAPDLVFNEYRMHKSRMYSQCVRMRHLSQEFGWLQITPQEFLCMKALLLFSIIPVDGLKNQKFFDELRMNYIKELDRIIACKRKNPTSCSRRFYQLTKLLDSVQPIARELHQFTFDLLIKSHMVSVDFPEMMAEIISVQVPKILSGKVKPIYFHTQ
T1 sequence (P43140 whole entry): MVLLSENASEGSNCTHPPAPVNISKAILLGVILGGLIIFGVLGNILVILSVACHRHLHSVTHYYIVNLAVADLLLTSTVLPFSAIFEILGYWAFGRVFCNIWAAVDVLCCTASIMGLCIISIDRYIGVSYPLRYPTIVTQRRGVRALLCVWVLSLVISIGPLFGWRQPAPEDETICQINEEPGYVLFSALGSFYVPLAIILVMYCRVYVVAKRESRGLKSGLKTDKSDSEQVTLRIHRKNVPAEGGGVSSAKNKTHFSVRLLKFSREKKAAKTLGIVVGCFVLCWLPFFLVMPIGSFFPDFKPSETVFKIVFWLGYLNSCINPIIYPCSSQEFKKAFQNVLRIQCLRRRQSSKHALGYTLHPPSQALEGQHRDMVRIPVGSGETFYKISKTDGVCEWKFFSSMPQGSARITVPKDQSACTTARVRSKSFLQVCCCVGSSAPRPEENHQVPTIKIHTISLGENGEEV
T4 sequence (Q9Y271 whole entry): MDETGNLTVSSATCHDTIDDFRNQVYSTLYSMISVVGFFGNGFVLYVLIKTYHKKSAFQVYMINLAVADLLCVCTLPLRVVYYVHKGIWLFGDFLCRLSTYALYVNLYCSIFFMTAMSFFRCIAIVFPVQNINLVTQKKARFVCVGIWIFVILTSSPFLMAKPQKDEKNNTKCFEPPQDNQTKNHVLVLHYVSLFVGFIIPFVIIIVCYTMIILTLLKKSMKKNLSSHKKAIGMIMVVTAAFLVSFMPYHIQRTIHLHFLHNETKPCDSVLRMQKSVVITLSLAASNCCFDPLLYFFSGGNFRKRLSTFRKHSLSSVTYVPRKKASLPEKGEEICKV
T5 sequence (P49146 whole entry): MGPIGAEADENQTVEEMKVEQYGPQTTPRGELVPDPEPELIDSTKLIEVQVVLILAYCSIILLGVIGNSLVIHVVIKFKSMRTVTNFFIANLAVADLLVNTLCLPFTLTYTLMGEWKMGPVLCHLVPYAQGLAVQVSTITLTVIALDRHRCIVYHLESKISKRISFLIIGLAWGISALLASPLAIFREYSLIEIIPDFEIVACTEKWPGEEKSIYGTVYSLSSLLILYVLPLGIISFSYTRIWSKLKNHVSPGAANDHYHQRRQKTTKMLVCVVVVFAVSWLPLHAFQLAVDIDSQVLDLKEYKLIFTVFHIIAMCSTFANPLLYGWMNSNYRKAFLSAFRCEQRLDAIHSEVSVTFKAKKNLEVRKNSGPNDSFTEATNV

Usually pEC50 stands for −log10 of the EC50, conventionally taken in molar units. A high value points to a low EC50. The pIC50 is the IC50 on a negative log10 scale, so that one unit is a factor of ten. `NS(=O)(=O)c1ccc(NC2=CC(=O)c3ccccc3C2=O)cc1` [4-((1,4-dioxo-1,4-dihydronaphthalen-2-yl)amino)benzenesulfonamide] showed a pEC50 with MITF of 6.80. In assay [1], this compound gave a pIC50 of 5.15.

A word on the inhibition: it is the relative decrease from the control value, in per cent. Low readings indicate little suppression, high ones strong suppression. For the compound `NS(=O)(=O)c1ccc(NC2=CC(=O)c3ccccc3C2=O)cc1` [Example 1, 4-((1,4-Dioxo-1,4-dihydronaphthalen-2-yl)amino)benzenesulfonamide], the inhibition at 10 µM is 28% at Adrenergic α1A; 14% in assay [2]; 9% at Dopamine D3; 5% in assay [3]; 5% on Neuropeptide Y Y2.
